Reference: patent publication US10316035B2, “Triazolopyridine inhibitors of myeloperoxidase” (BRISTOL-MYERS SQUIBB COMPANY, priority 2015, dated 2019)

What was measured:
myeloperoxidase (MPO) = biological target: T1, myeloperoxidase (MPO) (Homo sapiens, UniProt P05164); assay: MPO peroxidation assay (Amplex Red assay); format: biochemical; details: MPO peroxidation, potency range class; read-out: Amplex Red IC50
T1 sequence (P05164 49-745): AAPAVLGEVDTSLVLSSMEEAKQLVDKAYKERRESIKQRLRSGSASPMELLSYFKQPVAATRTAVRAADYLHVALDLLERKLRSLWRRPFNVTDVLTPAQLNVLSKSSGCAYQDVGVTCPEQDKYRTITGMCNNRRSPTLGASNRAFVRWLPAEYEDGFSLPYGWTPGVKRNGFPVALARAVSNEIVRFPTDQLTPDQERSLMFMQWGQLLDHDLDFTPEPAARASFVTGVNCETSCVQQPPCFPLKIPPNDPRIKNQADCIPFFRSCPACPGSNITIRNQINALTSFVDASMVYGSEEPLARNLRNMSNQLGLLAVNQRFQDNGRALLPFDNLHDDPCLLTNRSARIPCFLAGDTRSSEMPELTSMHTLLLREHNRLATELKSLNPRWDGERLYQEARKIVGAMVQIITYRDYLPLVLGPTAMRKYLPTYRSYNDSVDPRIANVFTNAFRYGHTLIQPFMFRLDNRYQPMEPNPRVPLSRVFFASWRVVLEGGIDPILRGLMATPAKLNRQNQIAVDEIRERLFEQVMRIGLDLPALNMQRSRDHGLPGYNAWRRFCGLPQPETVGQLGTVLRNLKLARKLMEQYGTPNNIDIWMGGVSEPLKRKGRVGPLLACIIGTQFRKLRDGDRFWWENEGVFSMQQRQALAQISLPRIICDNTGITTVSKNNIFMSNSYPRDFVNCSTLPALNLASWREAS
In short: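 MPO (200 pM) with 40 nM H2O2 was preincubated 10 min at room temperature with inhibitor in 100 mM KPi pH 7.4. A mix of Amplex Red (200 μM) and H2O2 (10 mM) was then added and resorufin fluorescence read kinetically for 15 min. Slopes over 180–540 s gave % inhibition and IC50 via a four-parameter Hill fit.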

[1] = biological target: T2, EPX (eosinophil peroxidase) (Homo sapiens, UniProt P11678); assay: EPX bromination assay; format: biochemical
T2 construct: purchased Lee Biosolutions 342-60
T2 sequence (P11678 140-715): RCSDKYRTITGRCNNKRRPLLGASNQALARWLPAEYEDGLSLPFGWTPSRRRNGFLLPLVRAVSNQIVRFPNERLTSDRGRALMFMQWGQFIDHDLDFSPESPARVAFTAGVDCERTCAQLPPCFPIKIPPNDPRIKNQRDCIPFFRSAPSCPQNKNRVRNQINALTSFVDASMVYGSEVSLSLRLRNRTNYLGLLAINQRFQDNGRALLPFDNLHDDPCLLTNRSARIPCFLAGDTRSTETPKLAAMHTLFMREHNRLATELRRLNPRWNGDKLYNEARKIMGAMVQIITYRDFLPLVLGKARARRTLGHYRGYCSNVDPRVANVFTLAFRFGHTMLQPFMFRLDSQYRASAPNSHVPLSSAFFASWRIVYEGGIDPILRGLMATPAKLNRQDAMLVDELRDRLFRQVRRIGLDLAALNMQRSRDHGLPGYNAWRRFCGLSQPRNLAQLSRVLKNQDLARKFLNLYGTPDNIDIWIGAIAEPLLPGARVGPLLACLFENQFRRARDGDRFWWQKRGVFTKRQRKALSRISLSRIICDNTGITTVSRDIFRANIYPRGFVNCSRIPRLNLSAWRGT
Description: [formula] where A=minimal Y value (activity level of inhibited sample), B=maximal Y value (activity level of uninhibited sample), C=Log IC50, D=Hill Slope, x=concentration of inhibitor. EPX Bromination Assay
EPX bromination activity was measured in 100 mM KPi (pH 7.4) by monitoring the H2O2 catalyzed formation of 3-bromo tyrosine from tyrosine and potassium bromide. A 50 μl mixture of 0.6 μM EPX (Lee Biosolutions Cat#342-60) was added to 100 nL inhibitor in 100% DMSO in a 384 well REMP plate. Enzyme and compound were preincubated for ten minutes at room temperature.
After the ten minute preincubation of enzyme and inhibitor, 25 μL of a mixture containing 400 μM tyrosine and 1200 μM potassium bromide was added to the plate containing enzyme and inhibitor, followed by the addition of 25 μl of 20 μM H2O2. The reaction was allowed to proceed for 15 minutes, at which time it was quenched with 10 μL of 20% TCA. The final concentrations of all components were 0.3 μM EPX, 100 μM tyrosine, […], 5 μM H2O2, 0.1% DMSO, 2.0% TCA.
IC50 values were determined by determining the peak areas of 3-bromotyrosine present at the end of the 15 minute reaction and fitting the data to:
[formula] where A=minimal Y value (activity level of inhibited sample), B=maximal Y value (activity level of uninhibited sample), C=Log IC50, D=Hill Slope, x=concentration of inhibitor.
Reversed-phase analysis was performed on a Waters Acquity Ultra Performance LC system using an Acquity UPLC BEH C18 […], 2.1×50 mm analytical column. The column was maintained at 60° C. Samples were eluted using a gradient of 0%-100% B over 2.5 minutes, followed by equilibration with 100% A for 1 minute where A consisted of 0.1% TFA and B consisted of 90% MeOH/0.1% TFA at a flow rate of 0.6 mL/min. The retention time of 3-bromo tyrosine was 1.22 min.

IC50 (myeloperoxidase (MPO)) | IC50 [1] | Structure (SMILES)
1 to 100 nM | 80 nM | Nc1cc(OCc2cccc(OCc3ccccc3)c2)c2nn[nH]c2n1 [Example 2, 7-(3-(Benzyloxy)benzyloxy)-3H-[1,2,3]triazolo[4,5-b]pyridin-5-amine]
1 to 100 nM | 10 nM | Nc1cc(OCc2cccc(OC3CC3)c2)c2nn[nH]c2n1 [Example 6, 7-(3-Cyclopropoxybenzyloxy)-3H-[1,2,3]triazolo[4,5-b]pyridin-5-amine]
1 to 100 nM | 40 nM | Nc1cc(OCc2cccc(-c3ncccn3)c2)c2nn[nH]c2n1 [Example 8, 7-(3-(Pyrimidin-2-yl)benzyloxy)-3H-[1,2,3]triazolo[4,5-b]pyridin-5-amine]
1 to 100 nM | 10 nM | Nc1cc(OCc2c(F)cccc2F)c2nn[nH]c2n1 [Example 54, 7-(2,6-Difluorobenzyloxy)-3H-[1,2,3]triazolo[4,5-b]pyridin-5-amine]
